Measurements published in US3991053A.
In brackets after ≈: the same amount, converted by molar mass.

Tests used:
Salmonella choleraesuis [1] = test: In vivo protection of mice infected intraperitoneally with Salmonella choleraesuis; settings: multiple dosing, 25 mg./kg., percentage of animals which survive; for Percentage protection Sal. choleraesuis SC: subcutaneous (SC)
Description: (§1) In determining the in vivo activity of the compounds of the invention, the test compound is administered to mice which have been infected by intraperitoneal injection of a lethal inoculum of pathogenic bacteria. The test compound is administered using a multiple dosing regimen, using either the oral (PO) or the subcutaneous (SC) route. The inoculum of bacteria varies from one to about ten times the amount needed to kill 100% of the mice, under the conditions of the test. At the end of the test, the activity of a compound is assessed by counting the number of survivors among the treated animals, and expressing the activity of a compound as the percentage of animals which survive. In Table I, in vivo activities of several of the compounds of this invention against Salmonella choleraesuis and Pasteurella multocida are presented. | *The dosage of test compound in the protection studies using Salmonnella | choleraesuis was 25 mg./kg. of body weight, and using Pasteurella | multocida it was 50 mg./kg. of body weight.

Pasteurella multocida [2] = test: In vivo protection of mice infected intraperitoneally with Pasteurella multocida; settings: multiple dosing, 50 mg./kg., percentage of animals which survive; for Percentage protection Past. multocida SC: subcutaneous (SC)
Description: as §1

Escherichia coli = test: In vitro MIC, two-fold serial dilution in Brain-Heart Infusion Broth, Escherichia coli; settings: read-out: MIC (minimum inhibitory concentration) Esch. coli
Pasteurella multocida [3] = test: In vitro MIC, two-fold serial dilution in Brain-Heart Infusion Broth, Pasteurella multocida; settings: read-out: MIC (minimum inhibitory concentration) Past. multocida
Streptococcus pyogenes = test: In vitro MIC, two-fold serial dilution in Brain-Heart Infusion Broth, Streptococcus pyogenes; settings: read-out: MIC (minimum inhibitory concentration) Strep. pyogenes
Salmonella choleraesuis [4] = test: In vitro MIC, two-fold serial dilution in Brain-Heart Infusion Broth, Salmonella choleraesuis; settings: Salmonella enterica, read-out: MIC (minimum inhibitory concentration) Sal. choleraesuis
Treponema hyodysenteriae = test: In vitro MIC, two-fold serial dilution in Brain-Heart Infusion Broth, Treponema hyodysenteriae; settings: Brachyspira hyodysenteriae, read-out: MIC (minimum inhibitory concentration) Trep. hyodysenteriae

| SMILES | Percentage protection Sal. choleraesuis PO (Salmonella choleraesuis [1]) | Percentage protection Sal. choleraesuis SC (Salmonella choleraesuis [1]) | Percentage protection Past. multocida PO (Pasteurella multocida [2]) | Percentage protection Past. multocida SC (Pasteurella multocida [2]) | MIC (Escherichia coli) | MIC (Pasteurella multocida [3]) | MIC (Streptococcus pyogenes) | MIC (Salmonella choleraesuis [4]) | MIC (Treponema hyodysenteriae) |
| --- | --- | --- | --- | --- | --- | --- | --- | --- | --- |
| CC1(O)OCc2c1[n+]([O-])c1ccccc1[n+]2[O-] (centres unmarked) [1-Hydroxy-1-methyl-1,3-dihydrofuro[3,4-b]quinoxaline 4,9-dioxide] | 100% | 100% | 100% | 100% | 1.56 µg/mL (≈ 6.66 µM) | 12.5 µg/mL (≈ 53.4 µM) | 0.78 µg/mL (≈ 3.33 µM) | 1.56 µg/mL (≈ 6.66 µM) | 0.09 µg/mL (≈ 0.384 µM) |
| CC1(OCc2ccccc2)OCc2c1[n+]([O-])c1ccccc1[n+]2[O-] (centres unmarked) [1-Benzyloxy-1-methyl-1,3-dihydrofuro[3,4-b]quinoxaline 4,9-Dioxide] | 40% | 60% |  |  | 12.5 µg/mL (≈ 38.5 µM) | 3.12 µg/mL (≈ 9.62 µM) | 6.25 µg/mL (≈ 19.3 µM) | 12.5 µg/mL (≈ 38.5 µM) |  |
| CCOC1(C)OCc2c1[n+]([O-])c1ccccc1[n+]2[O-] (centres unmarked) [1-Ethoxy-1-methyl-1,3-dihydrofuro[3,4-b]quinoxaline 4,9-Dioxide] | 70% | 50% |  |  | 12.5 µg/mL (≈ 47.7 µM) | 12.5 µg/mL (≈ 47.7 µM) | 3.12 µg/mL (≈ 11.9 µM) | 12.5 µg/mL (≈ 47.7 µM) |  |
| COC1(C)OCc2c1[n+]([O-])c1ccccc1[n+]2[O-] (centres unmarked) [1-Methoxy-1-methyl-1,3-dihydrofuro[3,4-b]quinoxaline 4,9-Dioxide] | 100% | 100% | 90% | 100% | 3.12 µg/mL (≈ 12.6 µM) | 3.12 µg/mL (≈ 12.6 µM) | 0.78 µg/mL (≈ 3.14 µM) | 1.56 µg/mL (≈ 6.28 µM) |  |
